From patent US20230158066A1, “ENCAPSULATED CARBONYL IRON SALT COMPOSITIONS AND PROCESS THEREOF” (priority 2020, published 2023)

Assay: Particle density (bulk density), USP <616> method 1
Type: physicochemical
Conditions: untapped powder, W/V0
Text: Particle density or Bulk density is the density of the solids (determined by the composition), which determines the particle density, together with the amount of occluded air. It's the ratio of mass to volume (including the inter-particulate void volume) of an untapped powder sample. It depends on both the density of powder particle and arrangement of the particles. The bulk density influenced by preparation method, treatment and storage of the samples.
The method used as per the reference of USP general chapter <616> method 1. • 1. Pass a quantity of material sufficient to complete the test through sieve greater than equal to 1 mm, if necessary to break up agglomerates that may formed. • 2. Fill the test sample approx. 150 g with 0.1% accuracy (W) in dry gradual 250 mL cylinder (readable to 2 mL) carefully. • 3. Read the unsettled apparent volume (V0) to the nearest graduated unit. • 4. Calculate the particle density by following formula;

Row | Molecule | Particle density
1 | O=C([O-])/C=C/C(=O)[O-].[Fe+2] [Ferrous fumarate] | 2.14 g/mL
2 | Ferrous Ascorbate | 0.75 g/mL
3 | Ferrous sulfate | 1.26 g/mL
